In patent publication US20050260730A1, “CDK2/cyclin A crystals and uses thereof” (priority 2003, published 2005):
Read-outs that look alike come from different tables or passages of the source. Non-standard residues stand in square brackets, D forms with d. Residues, ends and D or L forms follow the SMILES beside them. Phe(4-F) = N[C@@H](Cc1ccc(F)cc1)C(=O)O

Key:
cyclin A = cyclin A (Homo sapiens, UniProt P20248); test: Competitive cyclin A binding assay
CDK2/cyclin A = CDK2/cyclin A (Homo sapiens, UniProt P20248); test: CDK2/cyclin A kinase activity assay; type: biochemical
[1] = read-out: IC50 CDK2/cyclin A kinase activity

cyclin A, sequence (P20248 whole entry): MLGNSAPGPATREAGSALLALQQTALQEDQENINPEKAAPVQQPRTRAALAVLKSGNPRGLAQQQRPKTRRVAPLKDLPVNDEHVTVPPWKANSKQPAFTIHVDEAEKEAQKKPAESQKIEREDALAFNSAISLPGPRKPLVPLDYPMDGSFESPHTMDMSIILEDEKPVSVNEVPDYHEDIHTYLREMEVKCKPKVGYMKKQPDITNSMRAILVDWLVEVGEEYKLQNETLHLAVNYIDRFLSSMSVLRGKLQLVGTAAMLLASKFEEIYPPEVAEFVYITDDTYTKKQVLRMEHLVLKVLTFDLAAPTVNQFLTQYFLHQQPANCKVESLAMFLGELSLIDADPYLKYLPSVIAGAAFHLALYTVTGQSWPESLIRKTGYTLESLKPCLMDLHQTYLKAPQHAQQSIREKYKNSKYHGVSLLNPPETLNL

IC50 (cyclin A) [µM] | IC50 (CDK2/cyclin A; [1]) [µM] | IC50 (CDK2/cyclin A) [µM] | SMILES
8.1 | > 50 | – | CC(C)C[C@H](NC(=O)[C@H](CCCNC(=N)N)NC(=O)[C@@H](N)CCCNC(=N)N)C(=O)N[C@@H](Cc1ccccc1)C(N)=O [SEQ ID NO: 20, H-Arg-Arg-Leu-Phe-NH2] (H-RRLF-NH2)
19 | 50 | – | CC(C)C[C@H](NC(=O)[C@H](CCCNC(=N)N)NC(=O)[C@@H](N)CCCNC(=N)N)C(=O)N[C@@H](Cc1ccc(F)cc1)C(N)=O [SEQ ID NO: 29, H-Arg-Arg-Leu-—-(p-F-Phe)-NH2] (H-RRL[Phe(4-F)]-NH2)
– | – | > 50 | CC(=O)N[C@@H](CCCN=C(N)N)C(=O)N[C@@H](CCCN=C(N)N)C(=O)N[C@@H](CC(C)C)C(=O)N[C@@H](CC(N)=O)C(=O)N[C@@H](Cc1ccccc1)C(N)=O [SEQ ID NO: 30, Ac-Arg-Arg-Leu-Asn-Phe-NH2]
